Test results as given in US12686657B2, “Anti-inflammatory carboxamide derivatives” (BIOMEDCODE HELLAS SA, priority 2021, dated 2026).
Where two headings read alike, the source gives them in different places.

What was measured:
Type in all cases: cell-based, mice
hTNFtg SFs [1] = assay: Legendplex pro-inflammatory chemokine panel on hTNFTg synovial fibroblasts
Protocol: (§1) SFs were isolated as previously described by Armaka et al., 2009, from the ankle joints of hTNFtg or CBA/C57BL6 wild type (wt) littermates. Briefly, ankle joints were digested with Collagenase IV (Sigma Aldrich, C5138) for 45 minutes at a 37° C. shaking waterbath and after 5 days in culture at 37° C. and 5% CO2, a depletion of CD45+ lineage cells was performed using a Biotin anti-mouse CD45 Antibody (Biolegend, 103104) and Dynabeads™ Biotin Binder (ThermoFisher 11047), according to the manufacturer's protocol. After 10 days in culture, SFs were seeded overnight (O/N) at a concentration of 2×10^4 cells/well in a 96 well plate in 1×DMEM, supplemented with 100 U/ml Penicillin Streptomycin (P/S) and 10% Fetal Bovine Serum (FBS). The next day the cells were synchronized by starvation that included their O/N plating in low serum medium (0.5% FBS). Following the O/N starvation, the hTNFg and the WT SFs were treated with different concentrations of the experimental compounds. The SFs were at the same time activated with 10 ng/ml hTNF (Peprotech, 300-01A). 48 h following the treatment the cell culture supernatants were collected and analyzed by ELISA (R&S Systems, Duoset, DY478 and DY760) according to the manufacturer's protocol, for the detection of CCL5/Rantes and CCL20/Mip3, two known inflammatory chemokines. The IC50 values were determined as the concentration of the compounds required to reduce the levels of secreted CCL5 and CCL20 by 50%.
(§2) The supernatants of the SFs were also analyzed using the Mouse pro-inflammatory chemokine panel from Legendplex™ (Biolegend, 740007), according to manufacturer's instructions, for the simultaneous detection of 13 Mouse chemokines.
(§3) The anti-inflammatory potential of the test compounds 51, 52, 53, E and F on SFs was also assessed using the Mouse pro-inflammatory chemokine panel from Legendplex that allows the simultaneous detection of 13 Mouse chemokines. The effect of compound 51 on SFs was assessed at a dose of 25 μM, while the effect of the test compounds 52, 53, E and F was assessed at a dose of 10 μM. Numbers represent percentages of the chemokine levels secreted from the treated SFs compared to 100% levels of the chemokines detected in the untreated cells (i.e. either hTNFTg SFs or hTNF-activated wt SFs).
(§4) Table 9 summarizes the effect of the test compounds 51, 52 and 53, E and F on the inflammatory chemokines secreted from activated SFs. WT SFs were stimulated with 10 ng/ml hTNF.

hTNF-activated wt SFs [2] = assay: CCL5 and CCL20 ELISA on hTNF-activated wild type synovial fibroblasts
Description: (§5) Primary SFs were derived from a) human TNF transgenic (hTNFTg) mice (Keffer et al., 1991) as well as from b) CBA/C57BL6 wild type mice.
By testing the compounds in a) and b) we accessed their effect on the activated SFs phenotype caused by both the endogenous hTNF upregulation and the exogenous hTNF administration. In this way it was confirm the ability of the compounds of the invention to act in the TNF pathway directly downstream of TNF.
as §1
In order to determine the efficiency of the compounds of the invention, the same protocol was repeated with some minor modifications. Mainly, the concentration of hTNF was 10-fold reduced, i.e., adjusted to 1 ng/ml, and the SFs were seeded overnight at a concentration of 10^4 cells/well.
(§6) Table 7 summarizes the reduction of CCL5 and CCL20 levels achieved with the test compounds of the invention. Data are presented as percentages of the chemokine levels detected in treated cells compared to 100% levels of the chemokines detected in the untreated cells.
(§7) Table 8 summarizes the values of IC50 and toxicity for the test compounds of the invention. Dose response curves regarding the WT SFs were produced with 10 ng/ml hTNF stimulation for all compounds, with the exception of the compounds E and F, where WT cells were induced using hTNF at 1 ng/ml: […]

SFs and PMCs = assay: Compound cytotoxicity, Crystal Violet assay
Protocol: The toxicity of the test compounds was assessed at several concentrations using the Crystal Violet assay on both SFs and PMCs. Adherent viable cells were Methanol fixed and stained with Crystal Violet. Optical density was quantified at […], as described in Feoktistova et al., 2016.

hTNFtg SFs [3] = assay: CCL5 and CCL20 ELISA on hTNFtg synovial fibroblasts; conditions: Mus musculus, Fibroblast; for activity at 10 µM: compound 10 μM; for activity at 10 µM / activity at 50 µM / activity at 25 µM: 48 h; for activity at 50 µM: compound 50 μM; for activity at 25 µM: compound 25 μM
Protocol: as §5
hTNFtg mice overexpress human TNF, resulting in the spontaneous development of arthritis.
as §1, §6, §7

hTNF-activated wt SFs [4] = assay: Legendplex pro-inflammatory chemokine panel on hTNF-activated wt synovial fibroblasts; conditions: 10 ng/ml hTNF
Protocol: as §1, §2, §3, §4

hTNFtg SFs [5] = assay: Wound healing assay on activated SFs; conditions: compound 10 μM, 24 h
Protocol: Activated SFs were isolated from hTNFtg mice as described above and they were seeded in 24 well plates at a concentration of 2×10^5 cells/well. The next day a straight-line wound was created on the formed cell monolayer using the tip of a 200 μl pipette. Images of the wounds were captured by microscope at a magnification of 4× at two time points. Time point 0 (i.e. the time of the creation of the wound) as well as 24 h later (t=24 h). The area of the wound was measured at each time point using the software ImageJ.
The percent closure of the wound was calculated using the following formula: [(wound area at t0−wound area at t24)/wound area at t0]*100
The assay for each compound was repeated four times.
The inventors wanted to further explore the potential of the test compounds to reduce the activated phenotype of the arthritogenic SFs and studied their effect on a wound healing assay. In this assay a wound is formed on a monolayer of SFs and the rate of closure of this wound is indicative of the proliferation and migration capacity of the SFs, i.e. the slower the closure of the wound, the less proliferative and migratory are the SFs.
The potential ability of the compounds 53, E and F to inhibit the proliferation and migration of activated SFs, was assessed at a concentration of 10 μM and the wound healing assay was performed using hTNFtg SFs, as these cells show increased proliferation and migration potential (Vasilopoulos et al., 2007). The data shown in Table 10 where the percentages of wound closure area are presented in hTNFtg untreated as well as compound treated cells.

[6] = 1 ng/mL hTNF, compound 10 μM, 48 h
[7] = 1 ng/mL hTNF, compound 50 μM, 48 h
[8] = 10 ng/mL hTNF, compound 10 μM, 48 h
[9] = 10 ng/mL hTNF, compound 50 μM, 48 h
[10] = Mus musculus, Fibroblast, 10 ng/ml hTNF stimulation, read-out: IC50 (μM) CCL5 WT
[11] = Mus musculus, Fibroblast, 10 ng/ml hTNF stimulation, read-out: IC50 (μM) CCL20 WT
[12] = read-out: CCL5 hTNFtg, percentage of level in untreated cells
[13] = read-out: CCL20 hTNFtg, percentage of level in untreated cells
[14] = read-out: IC50 (μM) CCL5 hTNFtg
[15] = read-out: IC50 (μM) CCL20 hTNFtg
[16] = 1 ng/mL hTNF, compound 25 μM, 48 h
[17] = 10 ng/mL hTNF, compound 25 μM, 48 h

SMILES	CCL5 WT, percentage of level in untreated cells (hTNF-activated wt SFs [2]; [6]) [%]	CCL20 WT, percentage of level in untreated cells (hTNF-activated wt SFs [2]; [6]) [%]	CCL5 WT, percentage of level in untreated cells (hTNF-activated wt SFs [2]; [7]) [%]	CCL5 WT, percentage of level in untreated cells (hTNF-activated wt SFs [2]; [8]) [%]	CCL20 WT, percentage of level in untreated cells (hTNF-activated wt SFs [2]; [8]) [%]	CCL5 WT, percentage of level in untreated cells (hTNF-activated wt SFs [2]; [9]) [%]	IC50 (hTNF-activated wt SFs [2]; [10]) [µM]	IC50 (hTNF-activated wt SFs [2]; [11]) [µM]	Cell Toxicity (SFs and PMCs) [µM]	activity at 10 µM (hTNFtg SFs [3]; [12]) [%]	activity at 10 µM (hTNFtg SFs [3]; [13]) [%]	activity at 50 µM (hTNFtg SFs [3]; [12]) [%]	activity at 50 µM (hTNFtg SFs [3]; [13]) [%]	IC50 (hTNFtg SFs [3]; [14]) [µM]	IC50 (hTNFtg SFs [3]; [15]) [µM]	EOTAXIN hTNFTg, percentage of level in untreated cells (hTNFtg SFs [1]; compound 10 μM) [%]	KC hTNFTg, percentage of level in untreated cells (hTNFtg SFs [1]; compound 10 μM) [%]	LIX hTNFTg, percentage of level in untreated cells (hTNFtg SFs [1]; compound 10 μM) [%]	MCP1 hTNFTg, percentage of level in untreated cells (hTNFtg SFs [1]; compound 10 μM) [%]	also measured
COc1cc(N)c(Cl)cc1C(=O)NCC1(c2ccc(Cl)cc2)CCCCC1 [Compound 51, 4-amino-5-chloro-N-((1-(4-chlorophenyl)cyclohexyl)methyl)-2-methoxybenzamide]	54	63	20	67	14	39	10.4	3	>100	46	16	47	13	2.6	1					EOTAXIN hTNFTg, percentage of level in untreated cells (hTNFtg SFs [1]; compound 25 μM): 24%; KC hTNFTg, percentage of level in untreated cells (hTNFtg SFs [1]; compound 25 μM): 80%; LIX hTNFTg, percentage of level in untreated cells (hTNFtg SFs [1]; compound 25 μM): 22%; MCP1 hTNFTg, percentage of level in untreated cells (hTNFtg SFs [1]; compound 25 μM): 89%; CCL20 WT, percentage of level in untreated cells (hTNF-activated wt SFs [2]; [7]): 35%; CCL20 WT, percentage of level in untreated cells (hTNF-activated wt SFs [2]; [9]): 5%; EOTAXIN WT, percentage of level in untreated cells (hTNF-activated wt SFs [4]; compound 25 μM): 7%; KC WT, percentage of level in untreated cells (hTNF-activated wt SFs [4]; compound 25 μM): 41%; LIX WT, percentage of level in untreated cells (hTNF-activated wt SFs [4]; compound 25 μM): 3%; MCP1 WT, percentage of level in untreated cells (hTNF-activated wt SFs [4]; compound 25 μM): 59%
COc1cc(N)c(Cl)cc1C(=O)NCC1(c2ccc(Cl)cc2)CCCCCC1 [Compound 52, 4-amino-5-chloro-N-((1-(4-chlorophenyl)cycloheptyl)methyl)-2-methoxybenzamide]	48	45	22	27	15	14	1.4	1.5	>200	50	67	29	48	4.2	15	6	49	48	55	activity at 50 µM (hTNF-activated wt SFs [2]; Mus musculus, Fibroblast, 48 h, 1 ng/mL hTNF, compound 50 μM, 48 h, read-out: CCL20 WT, percentage of level in untreated cells): 17%; EOTAXIN WT, percentage of level in untreated cells (hTNF-activated wt SFs [4]; compound 10 μM): 26%; KC WT, percentage of level in untreated cells (hTNF-activated wt SFs [4]; compound 10 μM): 34%; LIX WT, percentage of level in untreated cells (hTNF-activated wt SFs [4]; compound 10 μM): 23%; MCP1 WT, percentage of level in untreated cells (hTNF-activated wt SFs [4]; compound 10 μM): 40%
COc1cc(N)c(Cl)cc1C(=O)NCC1(Nc2ccc(F)cc2Cl)CCCCCC1 [E, 4-amino-5-chloro-N-((1-((2-chloro-4-fluorophenyl)amino)cycloheptyl)methyl)-2-methoxybenzamide]	0	2		13	5				>150	8.2	14			1.69	4.07	2.5	32	19.5	25.5	MIP1β hTNFTg, percentage of level in untreated cells (hTNFtg SFs [1]; compound 10 μM): 24%; CCL5 WT, percentage of level in untreated cells (hTNF-activated wt SFs [2]; [16]): 0%; CCL20 WT, percentage of level in untreated cells (hTNF-activated wt SFs [2]; [16]): 3%; CCL5 WT, percentage of level in untreated cells (hTNF-activated wt SFs [2]; [17]): 11%; CCL20 WT, percentage of level in untreated cells (hTNF-activated wt SFs [2]; [17]): 2%; IC50 (hTNF-activated wt SFs [2]; Mus musculus, Fibroblast, hTNF at 1 ng/ml, read-out: IC50 (μM) CCL5 WT): 0.59 µM; IC50 (hTNF-activated wt SFs [2]; Mus musculus, Fibroblast, hTNF at 1 ng/ml, read-out: IC50 (μM) CCL20 WT): 0.167 µM; activity at 25 µM (hTNFtg SFs [3]; [12]): 5%; activity at 25 µM (hTNFtg SFs [3]; [13]): 20%; % of wound closure (mean ± SD) (hTNFtg SFs [5]): 73 ± 31.5%
